{
  "source": "patent US9718782B2",
  "about": "“TrkA kinase inhibitors, compositions and methods thereof” (MERCK SHARP & DOHME CORP, priority 2013, dated 2017)",
  "data": [
    {"target": "T1, TrkA receptor (Homo sapiens, UniProt P04629)", "T1 construct": "host or cells: U2OS (PathHunter, 'TrkA p75' cells)", "T1 sequence (P04629 33-796)": "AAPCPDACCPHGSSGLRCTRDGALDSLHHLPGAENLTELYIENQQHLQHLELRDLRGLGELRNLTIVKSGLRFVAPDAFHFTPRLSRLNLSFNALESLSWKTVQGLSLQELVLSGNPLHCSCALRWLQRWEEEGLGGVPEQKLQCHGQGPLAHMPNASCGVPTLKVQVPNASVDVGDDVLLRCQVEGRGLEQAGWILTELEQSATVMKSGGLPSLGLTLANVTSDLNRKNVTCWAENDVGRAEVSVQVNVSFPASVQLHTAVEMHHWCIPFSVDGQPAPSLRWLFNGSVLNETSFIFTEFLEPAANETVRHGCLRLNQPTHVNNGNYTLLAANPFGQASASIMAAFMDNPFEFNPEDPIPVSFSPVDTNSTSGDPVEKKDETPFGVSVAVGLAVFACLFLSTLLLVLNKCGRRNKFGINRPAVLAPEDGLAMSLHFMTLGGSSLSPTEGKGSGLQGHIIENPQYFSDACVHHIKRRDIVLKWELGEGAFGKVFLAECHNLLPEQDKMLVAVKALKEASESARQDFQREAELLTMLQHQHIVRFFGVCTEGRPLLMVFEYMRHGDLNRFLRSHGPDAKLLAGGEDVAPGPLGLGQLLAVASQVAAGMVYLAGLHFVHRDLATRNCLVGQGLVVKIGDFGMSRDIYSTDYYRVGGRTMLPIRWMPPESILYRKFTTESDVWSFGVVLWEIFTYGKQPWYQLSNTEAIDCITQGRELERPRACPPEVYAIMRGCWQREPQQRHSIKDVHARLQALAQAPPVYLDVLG", "assay": "DiscoverX PathHunter TrkA functional assay (NGF-stimulated U2OS cells)", "format": "cell-based", "details": "U2OS cells expressing TrkA-Prolink fusion and Shc1-EA; compound 1 hour, then EC80 NGF 3 hours; luminescence", "protocol": "TrkA functional activity was measured using a DiscoverX PathHunter assay. In this assay, U2OS cells are express TrkA receptor as a fusion with the weakly complementing fragment of B-galactosidase, which DiscoverX calls “Prolink (PK)”; additionally, Shcl is fused with a larger fragment, which is called “Enzyme Acceptor (EA)”. Activation of the TrkA receptor, upon NGF addition, results in the kinase domain being phosphorylated, resulting in subsequent recruitment of Shcl-EA protein. That recruitment results in an active B-galactosidase enzyme that is detected by addition of a chemiluminescent substrate.\nAll reagents were purchased from DiscoverX, except for the receptor agonists (NGF, BDNF, NT3) which were purchased from Peprotech. Cells were expanded and frozen into cryovials (TrkA p75 @passage 13, 1.5×10^7 cells/vial; TrkC p75 @passage 11, 1.5×10^7 cells/vial in InVitrogen Recovery Cell Freezing media), and stored in the vapor phase of liquid nitrogen, and thawed immediately before use. Thawed cells were added to a 384-well plate (BD Falcon 384-well white/clear, TC surface 120 uL assay plates (353963), 20 uL of 0.375e6 cells/mL=>7500 cells/well), and allowed to incubate overnight. Compound (10 mM starting dose: 202.5 nL compound yielding 0.81% DMSO final in total assay volume and starting doses 81 uM) was added the following morning and allowed to incubate on cells for 1 hour. Then, 5 uL EC80 of agonist (NGF for TrkA; BDNF for TrkB; NT3 for TrkC) was added and allowed to incubate for 3 hours at room temperature. DiscoverX PathHunter detection reagent is added (12 uL to plate and components diluted in parts as per kit instructions) and the plate is further incubated for 1 hour in the dark. The plate is read via luminescence on the Perkin Elmer Envision.", "units": {"IC50": "nM"}, "values": [
      {"molecule": "Cc1ccc(NC(=O)NC2c3ccccc3-c3ccccc32)c(-c2ccccc2)n1", "note": "[Compound 1, 1-(9H-fluoren-9-yl)-3-(6-methyl-2-phenylpyridin-3-yl)urea]", "IC50": 69},
      {"molecule": "Cc1nc(-c2ccccc2)c(NC(=O)NC2c3ccccc3-c3ccccc32)s1", "note": "[Compound 2, 1-(9H-fluoren-9-yl)-3-(2-methyl-4-phenyl-1,3-thiazol-5-yl)urea]", "IC50": 140},
      {"molecule": "Cc1ncc(NC(=O)NC2c3ccccc3Oc3ccccc32)c(-c2ccccc2)n1", "note": "[Compound 3, 1-(2-methyl-4-phenylpyrimidin-5-yl)-3-(9H-xanthen-9-yl)urea]", "IC50": 61},
      {"molecule": "Cc1ncc(NC(=O)NC2c3ccccc3-c3ccccc32)c(-c2ccccc2)n1", "note": "[Compound 4, 1-(9H-fluoren-9-yl)-3-(2-methyl-4-phenylpyrimidin-5-yl)urea]", "IC50": 82},
      {"molecule": "Cc1ccc(NC(=O)NC2c3ccccc3-c3ccccc32)c(-c2ccc(F)cc2)n1", "note": "[Compound 5, 1-(9H-fluoren-9-yl)-3-[2-(4-fluorophenyl)-6-methylpyridin-3-yl]urea]", "IC50": 230},
      {"molecule": "O=C(Nc1c(-c2ccccc2)nc2sccn12)NC1c2ccccc2-c2ccccc21", "note": "[Compound 6, 1-(9H-fluoren-9-yl)-3-(6-phenylimidazo [2,1-b][1,3]thiazol-5-yl)urea]", "IC50": 35},
      {"molecule": "Cc1cc(NC(=O)NC2c3ccccc3-c3ccccc32)n(-c2ccccc2)n1", "note": "[Compound 7, 1-(9H-fluoren-9-yl)-3-(3-methyl-1-phenyl-1H-pyrazol-5-yl)urea]", "IC50": 44},
      {"molecule": "Cc1onc(-c2ccccc2)c1NC(=O)NC1c2ccccc2-c2ccccc21", "note": "[Compound 8, 1-(9H-fluoren-9-yl)-3-(5-methyl-3-phenylisoxazol-4-yl)urea]", "IC50": 190},
      {"molecule": "Cn1ncc(-c2ccccc2)c1NC(=O)NC1c2ccccc2-c2ccccc21", "note": "[Compound 9, 1-(9H-fluoren-9-yl)-3-(1-methyl-4-phenyl-1H-pyrazol-5-yl)urea]", "IC50": 530},
      {"molecule": "Cc1nn(C)c(NC(=O)NC2c3ccccc3-c3ccccc32)c1-c1ccccc1", "note": "[Compound 10, 1-(1,3-dimethyl-4-phenyl-1H-pyrazol-5-yl)-3-(9H-fluoren-9-yl)urea]", "IC50": 210},
      {"molecule": "O=C(Nc1cccnc1-c1ccccc1)NC1c2ccccc2-c2ccccc21", "note": "[Compound 11, 1-(9H-fluoren-9-yl)-3-(2-phenylpyridin-3-yl)urea]", "IC50": 27},
      {"molecule": "O=C(Nc1cnccc1-c1ccccc1)NC1c2ccccc2-c2ccccc21", "note": "[Compound 12, 1-(9H-fluoren-9-yl)-3-(4-phenylpyridin-3-yl)urea]", "IC50": 280},
      {"molecule": "Cc1ccc(NC(=O)NC2c3ccccc3-c3ccccc32)cn1", "note": "[Compound 13, 1-(9H-fluoren-9-yl)-3-(6-methylpyridin-3-yl)urea]", "IC50": 2500},
      {"molecule": "O=C(Nc1ccnn1-c1ccccc1)NC1c2ccccc2-c2ccccc21", "note": "[Compound 14, 1-(9H-fluoren-9-yl)-3-(1-phenyl-1H-pyrazol-5-yl)urea]", "IC50": 120},
      {"molecule": "O=C(Nc1cc(-c2ccccc2)nn1-c1ccccc1)NC1c2ccccc2-c2ccccc21", "note": "[Compound 15, 1-(1,3-diphenyl-1H-pyrazol-5-yl)-3-(9H-fluoren-9-yl)urea]", "IC50": 3000},
      {"molecule": "CC(C)(C)c1cc(NC(=O)NC2c3ccccc3-c3ccccc32)n(-c2ccccc2)n1", "note": "[Compound 16, 1-(3-tert-butyl-1-phenyl-1H-pyrazol-5-yl)-3-(9H-fluoren-9-yl)urea]", "IC50": 69},
      {"molecule": "CC(C)Cc1cc(NC(=O)NC2c3ccccc3-c3ccccc32)n(-c2ccccc2)n1", "note": "[Compound 17, 1-(9H-fluoren-9-yl)-3-[3-(2-methylpropyl)-1-phenyl-1H-pyrazol-5-yl]urea]", "IC50": 200},
      {"molecule": "Cc1ccccc1-n1nc(C(C)(C)C)cc1NC(=O)NC1c2ccccc2-c2ccccc21", "note": "[Compound 18, 1-[3-tert-butyl-1-(2-methylphenyl)-1H-pyrazol-5-yl]-3-(9H-fluoren-9-yl)urea]", "IC50": 850},
      {"molecule": "O=C(Nc1cc(C2CC2)nn1-c1ccccc1)NC1c2ccccc2-c2ccccc21", "note": "[Compound 19, 1-(3-cyclopropyl-1-phenyl-1H-pyrazol-5-yl)-3-(9H-fluoren-9-yl)urea]", "IC50": 69},
      {"molecule": "CC(C)(C)c1cc(NC(=O)NC2c3ccccc3-c3ccccc32)n(-c2ccc(F)cc2)n1", "note": "[Compound 20, 1-[3-tert-butyl-1-(4-fluorophenyl)-1H-pyrazol-5-yl]-3-(9H-fluoren-9-yl)urea]", "IC50": 190},
      {"molecule": "O=C(Nc1c(-c2ccccc2)nc2ccccn12)NC1c2ccccc2-c2ccccc21", "note": "[Compound 21, 1-(9H-fluoren-9-yl)-3-(2-phenylimidazo [1,2-a]pyridin-3-yl)urea]", "IC50": 28},
      {"molecule": "Cn1cnc(-c2ccccc2)c1NC(=O)NC1c2ccccc2-c2ccccc21", "note": "[Compound 22, 1-(9H-fluoren-9-yl)-3-(1-methyl-4-phenyl-1H-imidazol-5-yl)urea]", "IC50": 310},
      {"molecule": "Cc1nn(-c2ccc(F)cc2)c(NC(=O)NC2c3ccccc3-c3ccccc32)c1C#N", "note": "[Compound 23, 1-[4-cyano-1-(4-fluorophenyl)-3-methyl-1H-pyrazol-5-yl]-3-(9H-fluoren-9-yl)urea]", "IC50": 330},
      {"molecule": "COc1ccc(-c2cc(NC(=O)NC3c4ccccc4-c4ccccc43)n(-c3ccccc3)n2)cc1", "note": "[Compound 24, 1-(9H-fluoren-9-yl)-3-[3-(4-methoxyphenyl)-1-phenyl-1H-pyrazol-5-yl]urea]", "IC50": 550},
      {"molecule": "O=C(Nc1c2cnc3ccccc3c2nn1-c1ccccc1)NC1c2ccccc2-c2ccccc21", "note": "[Compound 25, 1-(9H-fluoren-9-yl)-3-(2-phenyl-2H-pyrazolo[4,3-c]quinolin-3-yl)urea]", "IC50": 1400},
      {"molecule": "CNc1ncccc1NC(=O)NC1c2ccccc2-c2ccccc21", "note": "[Compound 26, 1-(9H-fluoren-9-yl)-3-[2-(methylamino)pyridin-3-yl]urea]", "IC50": 520},
      {"molecule": "Cc1ccc(NC(=O)NC2c3ccccc3-c3ccccc32)c(F)n1", "note": "[Compound 27, 1-(9H-fluoren-9-yl)-3-(2-fluoro-6-methylpyridin-3-yl)urea]", "IC50": 3200},
      {"molecule": "Cc1ncc(NC(=O)NC2c3ccccc3-c3ccccc32)c(-c2ccc(F)cc2)n1", "note": "[Compound 28, 1-(9H-fluoren-9-yl)-3-[4-(4-fluorophenyl)-2-methylpyrimidin-5-yl]urea]", "IC50": 150},
      {"molecule": "Cc1cc(-c2ccc(F)cc2)c(NC(=O)NC2c3ccccc3-c3ccccc32)cn1", "note": "[Compound 29, 1-(9H-fluoren-9-yl)-3-[4-(4-fluorophenyl)-6-methylpyridin-3-yl]urea]", "IC50": 480},
      {"molecule": "O=C(Nc1cncnc1-c1ccccc1)NC1c2ccccc2-c2ccccc21", "note": "[Compound 30, 1-(9H-fluoren-9-yl)-3-(4-phenylpyrimidin-5-yl)urea]", "IC50": 170},
      {"molecule": "O=C(Nc1ccccc1-c1ccccc1)NC1c2ccccc2-c2ccccc21", "note": "[Compound 31, 1-biphenyl-2-yl-3-(9H-fluoren-9-yl)urea]", "IC50": 960},
      {"molecule": "Cn1nnc(-c2cccc(NC(=O)NC3c4ccccc4-c4ccccc43)c2)n1", "note": "[Compound 32, 1-(9H-fluoren-9-yl)-3-[3-(2-methyl-2H-tetrazol-5-yl)phenyl]urea]", "IC50": 1200},
      {"molecule": "Cc1nnnn1-c1cccc(NC(=O)NC2c3ccccc3-c3ccccc32)c1", "note": "[Compound 33, 1-(9H-fluoren-9-yl)-3-[3-(5-methyl-1H-tetrazol-1-yl)phenyl]urea]", "IC50": 1700},
      {"molecule": "O=C(Nc1cccc(-n2cnnc2)c1)NC1c2ccccc2-c2ccccc21", "note": "[Compound 34, 1-(9H-fluoren-9-yl)-3-[3-(4H-1,2,4-triazol-4-yl)phenyl]urea]", "IC50": 1100},
      {"molecule": "O=C(Nc1ccccc1N1CCOCC1)NC1c2ccccc2-c2ccccc21", "note": "[Compound 35, 1-(9H-fluoren-9-yl)-3-(2-morpholin-4-ylphenyl)urea]", "IC50": 4000},
      {"molecule": "CN1CCN(Cc2ccccc2NC(=O)NC2c3ccccc3-c3ccccc32)CC1", "note": "[Compound 36, 1-(9H-fluoren-9-yl)-3-{2-[(4-methylpiperazin-1-yl)methyl]phenyl}urea]", "IC50": 3000},
      {"molecule": "Cc1nnc(-c2cccc(NC(=O)NC3c4ccccc4-c4ccccc43)c2)[nH]1", "note": "[Compound 37, 1-(9H-fluoren-9-yl)-3-[3-(5-methyl-4H-1,2,4-triazol-3-yl)phenyl]urea]", "IC50": 2300},
      {"molecule": "Cc1nccn1-c1cccc(NC(=O)NC2c3ccccc3-c3ccccc32)c1", "note": "[Compound 38, 1-(9H-fluoren-9-yl)-3-[3-(2-methyl-1H-imidazol-1-yl)phenyl]urea]", "IC50": 3000},
      {"molecule": "Cc1cc(NC(=O)NC2c3ccccc3-c3ccccc32)n(-c2ccccn2)n1", "note": "[Compound 39, 1-(9H-fluoren-9-yl)-3-(3-methyl-1-pyridin-2-yl-1H-pyrazol-5-yl)urea]", "IC50": 3000},
      {"molecule": "O=C(Nc1cccnc1C1CCCCC1)NC1c2ccccc2-c2ccccc21", "note": "[Compound 40, 1-(2-cyclohexylpyridin-3-yl)-3-(9H-fluoren-9-yl)urea]", "IC50": 200},
      {"molecule": "Cc1cc(NC(=O)NC2c3ccccc3-c3ccccc32)n(-c2ccc(F)cc2)n1", "note": "[Compound 41, 1-(9H-fluoren-9-yl)-3-[1-(4-fluorophenyl)-3-methyl-1H-pyrazol-5-yl]urea]", "IC50": 83},
      {"molecule": "Cn1cnnc1-c1cccc(NC(=O)NC2c3ccccc3-c3ccccc32)c1", "note": "[Compound 42, 1-(9H-fluoren-9-yl)-3-[3-(4-methyl-4H-1,2,4-triazol-3-yl)phenyl]urea]", "IC50": 110}
    ]}
  ]
}
